Experimental data published in patent publication US9040545B2, “Heterocyclyl pyrazolopyrimidine analogues as selective JAK inhibitors” (Cellzome Limited, priority 2010, dated 2015).

Target: T1, Aurora A (Homo sapiens, UniProt O14965)
T1 construct: cell lysates from Jurkat cells (ATCC TIB-152) used; endogenous in cells; host or cells: Jurkat cells (ATCC TIB-152), treated with pervanadate
T1 sequence (O14965 1-403): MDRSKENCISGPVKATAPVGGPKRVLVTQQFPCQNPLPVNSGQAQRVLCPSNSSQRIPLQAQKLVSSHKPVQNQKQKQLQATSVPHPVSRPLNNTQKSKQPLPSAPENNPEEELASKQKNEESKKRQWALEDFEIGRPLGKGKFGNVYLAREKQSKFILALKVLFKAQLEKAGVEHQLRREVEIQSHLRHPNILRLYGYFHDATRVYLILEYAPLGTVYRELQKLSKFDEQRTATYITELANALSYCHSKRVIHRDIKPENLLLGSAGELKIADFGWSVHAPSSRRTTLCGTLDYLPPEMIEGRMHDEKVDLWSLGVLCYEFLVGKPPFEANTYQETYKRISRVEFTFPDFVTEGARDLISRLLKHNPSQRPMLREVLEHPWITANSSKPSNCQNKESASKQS
Experiment: Kinobeads assay, Aurora A
Format: binding
Details: for IC50: lysate of pervanadate-treated Jurkat cells, read-out: Inhibition values (IC50) Aur A

Row | SMILES | JAK3/AurA Fold Selectivity | IC50
1 | CN(C)CCCn1cc(Nc2ncc3cnn(Cc4cccc(N5CCOCC5=O)c4F)c3n2)cn1 [Example 50, 4-(3-((6-((1-(3-(Dimethylamino)propyl)-1H-pyrazol-4-yl)amino)-1H-pyrazolo[3,4-d]pyrimidin-1-yl)methyl)-2-fluorophenyl)morpholin-3-one] | >50 Fold | 100 to 1000 nM
2 | OCCn1cc(Nc2ncc3cnn(Cc4cccc(N5CCNCC5)c4F)c3n2)cn1 [Example 83, 2-(4-((1-(2-Fluoro-3-(piperazin-1-yl)benzyl)-1H-pyrazolo[3,4-d]pyrimidin-6-yl)amino)-1H-pyrazol-1-yl)ethanol] | 10-50 Fold | 100 to 1000 nM
3 | Cn1cc(Nc2ncc3cnn(Cc4cccc(N5CCNCC5)c4F)c3n2)cn1 [Example 67, 1-(2-Fluoro-3-(piperazin-1-yl)benzyl)-N-(1-methyl-1H-pyrazol-4-yl)-1H-pyrazolo[3,4-d]pyrimidin-6-amine] | >50 Fold | 100 to 1000 nM
4 | c1cc(Cn2ncc3cnc(Nc4cnn(CC5CCCNC5)c4)nc32)cc(N2CCOCC2)c1 (centres unmarked) [Example 48, 1-(3-Morpholinobenzyl)-N-(1-(piperidin-3-ylmethyl)-1H-pyrazol-4-yl)-1H-pyrazolo[3,4-d]pyrimidin-6-amine] | >50 Fold | 1000 to 10000 nM
5 | Cn1cc(Nc2ncc3cnn(Cc4cccc(N5CCOCC5O)c4)c3n2)cn1 (centres unmarked) [Example 88, 4-(3-((6-((1-Methyl-1H-pyrazol-4-yl)amino)-1H-pyrazolo[3,4-d]pyrimidin-1-yl)methyl)phenyl)morpholin-3-ol] | 10-50 Fold | 1000 to 10000 nM
6 | O=C1CNCCN1c1cccc(Cn2ncc3cnc(Nc4cnn(CCO)c4)nc32)c1 [Example 57, 1-(3-((6-((1-(2-Hydroxyethyl)-1H-pyrazol-4-yl)amino)-1H-pyrazolo[3,4-d]pyrimidin-1-yl)methyl)phenyl)piperazin-2-one] | 10-50 Fold | 100 to 1000 nM
7 | CN(C)CCCn1cc(Nc2ncc3cnn(Cc4cccc(N5CCOCC5)c4F)c3n2)cn1 [Example 43, N-(1-(3-(Dimethylamino)propyl)-1H-pyrazol-4-yl)-1-(2-fluoro-3-morpholinobenzyl)-1H-pyrazolo[3,4-d]pyrimidin-6-amine] | >50 Fold | 1000 to 10000 nM
8 | CN(C)CCCn1cc(Nc2ncc3cnn(Cc4c(F)c(F)cc(N5CCOCC5)c4F)c3n2)cn1 [Example 42, N-(1-(3-(Dimethylamino)propyl)-1H-pyrazol-4-yl)-1-(2,3,6-trifluoro-5-morpholinobenzyl)-1H-pyrazolo[3,4-d]pyrimidin-6-amine] | >50 Fold | 1000 to 10000 nM
9 | O=C(c1cccc(Cn2ncc3cnc(Nc4cnn(CCO)c4)nc32)c1F)N1CCOCC1 [Example 85, (2-Fluoro-3-((6-((1-(2-hydroxyethyl)-1H-pyrazol-4-yl)amino)-1H-pyrazolo[3,4-d]pyrimidin-1-yl)methyl)phenyl)(morpholino)methanone] | >50 Fold | 100 to 1000 nM
10 | c1cc(Cn2ncc3cnc(Nc4cnn(CC5CCNC5)c4)nc32)cc(N2CCOCC2)c1 (centres unmarked) [Example 60, 1-(3-Morpholinobenzyl)-N-(1-(pyrrolidin-3-ylmethyl)-1H-pyrazol-4-yl)-1H-pyrazolo[3,4-d]pyrimidin-6-amine] | >50 Fold | 1000 to 10000 nM

Second part, the compound after the results:

Row | JAK3/AurA Fold Selectivity | IC50 | SMILES
11 | 10-50 Fold | 100 to 1000 nM | OCCn1cc(Nc2ncc3cnn(Cc4cc(N5CCNCC5)cc(F)c4F)c3n2)cn1 [Example 78, 2-(4-((1-(2,3-Difluoro-5-(piperazin-1-yl)benzyl)-1H-pyrazolo[3,4-d]pyrimidin-6-yl)amino)-1H-pyrazol-1-yl)ethanol]
12 | 10-50 Fold | 100 to 1000 nM | O=C1CNCCN1c1cc(F)c(F)c(Cn2ncc3cnc(Nc4cnn(CCO)c4)nc32)c1 [Example 72, 1-(3,4-Difluoro-5-((6-((1-(2-hydroxyethyl)-1H-pyrazol-4-yl)amino)-1H-pyrazolo[3,4-d]pyrimidin-1-yl)methyl)phenyl)piperazin-2-one]
13 | >50 Fold | 1000 to 10000 nM | Cn1cc(Nc2ncc3cnn(Cc4cc(N5CCNCC5)cc(F)c4F)c3n2)cn1 [Example 86, 1-(2,3-Difluoro-5-(piperazin-1-yl)benzyl)-N-(1-methyl-1H-pyrazol-4-yl)-1H-pyrazolo[3,4-d]pyrimidin-6-amine]
14 | 10-50 Fold | 100 to 1000 nM | Cn1cc(Nc2ncc3cnn(Cc4cc(F)cc(N5CCNCC5=O)c4)c3n2)cn1 [Example 64, 1-(3-Fluoro-5-((6-((1-methyl-1H-pyrazol-4-yl)amino)-1H-pyrazolo[3,4-d]pyrimidin-1-yl)methyl)phenyl)piperazin-2-one]
15 | >50 Fold | 100 to 1000 nM | Cn1cc(Nc2ncc3cnn(Cc4c(F)c(F)cc(N5CCOCC5=O)c4F)c3n2)cn1 [Example 61, 4-(2,4,5-Trifluoro-3-((6-((1-methyl-1H-pyrazol-4-yl)amino)-1H-pyrazolo[3,4-d]pyrimidin-1-yl)methyl)phenyl)morpholin-3-one]
16 | 10-50 Fold | 100 to 1000 nM | Cn1cc(Nc2ncc3cnn(Cc4cc(N5CCNCC5=O)cc(F)c4F)c3n2)cn1 [Example 71, 1-(3,4-Difluoro-5-((6-((1-methyl-1H-pyrazol-4-yl)amino)-1H-pyrazolo[3,4-d]pyrimidin-1-yl)methyl)phenyl)piperazin-2-one]
17 | >50 Fold | 1000 to 10000 nM | CN(C)CCCn1cc(Nc2ncc3cnn(Cc4c(F)c(F)cc(N5CCOCC5=O)c4F)c3n2)cn1 [Example 70, 4-(3-((6-((1-(3-(Dimethylamino)propyl)-1H-pyrazol-4-yl)amino)-1H-pyrazolo[3,4-d]pyrimidin-1-yl)methyl)-2,4,5-trifluorophenyl)morpholin-3-one]
18 | >50 Fold | 100 to 1000 nM | Cn1cc(Nc2ncc3cnn(Cc4cc(N5CCOCC5=O)cc(F)c4F)c3n2)cn1 [Example 53, 4-(3,4-Difluoro-5-((6-((1-methyl-1H-pyrazol-4-yl)amino)-1H-pyrazolo[3,4-d]pyrimidin-1-yl)methyl)phenyl)morpholin-3-one]
19 | >50 Fold | 100 to 1000 nM | Cn1cc(Nc2ncc3cnn(Cc4cccc(N5CCNCC5=O)c4F)c3n2)cn1 [Example 54, 1-(2-Fluoro-3-((6-((1-methyl-1H-pyrazol-4-yl)amino)-1H-pyrazolo[3,4-d]pyrimidin-1-yl)methyl)phenyl)piperazin-2-one]
